Like-named read-outs stand apart in the source and are kept apart here.
Experiments:
[1] = Study 4
Procedure: (§1) Samples were tumbled for 48 hours at ambient conditions and protected from light.
A full factorial DOE study was performed to determine the optimal amounts of NMP, benzyl alcohol and buffer (tromethamine) required to produce the highest solubility. Any potential synergistic effects stemming from various excipient combinations were also investigated.

[2] = for Apparent pH: 2% Benzyl Alcohol
Procedure: as §1

[3] = not given; remark: listed apart in the source
[4] = 200 mM Sodium Phosphate, target pH 6.0, t24 h
[5] = 200 mM Tromethamine/HCl, target pH 8.5, t2 h

For `NS(=O)(=O)c1cc(C(=O)O)c(NCc2ccco2)cc1Cl` [furosemide, 4-chloro-2-(furan-2-ylmethylamino)-5-sulfamoyl-benzoic acid], the pH variability [1] was “up to 0.3 pH units”, the “Apparent pH” value ([2]; 100 mM Tromethamine pH 5.0, 25% NMP, t2 h) was 5.0 and the “Apparent pH” value ([2]; 100 mM Tromethamine pH 5.0, 25% NMP, t24 h) was 4.6. The “Apparent pH” value ([2]; 100 mM Tromethamine pH 5.0, 25% NMP, t48 h) was 5.1, the “Apparent pH” value ([2]; 100 mM Tromethamine pH = 4.0, 25% NMP, t2 h) was 3.9 and the “Apparent pH” value ([2]; 100 mM Tromethamine pH = 4.0, 25% NMP, t24 h) was 3.6. For the same compound, the “Apparent pH” value ([2]; 100 mM Tromethamine pH = 4.0, 25% NMP, t48 h) was 4.7, the pH variability ([2]; Study 6, pH 4.0 test samples) was 0.7 units and the Osmolarity (~50 mM Potassium Phosphate, target pH 6.0, t2 h) was 108 mOsm/Kg. It also gave an Osmolarity (~50 mM Potassium Phosphate, target pH 6.0, t24 h) of 105 mOsm/Kg, an Osmolarity (~50 mM Potassium Phosphate, target pH 6.0, t48 h) of 115 mOsm/Kg and an Osmolarity (~50 mM Potassium Phosphate, target pH 7.4, t2 h) of 193 mOsm/Kg. It also gave an Osmolarity (~50 mM Potassium Phosphate, target pH 7.4, t24 h) of 190 mOsm/Kg, an Osmolarity (~50 mM Potassium Phosphate, target pH 7.4, t48 h) of 213 mOsm/Kg and an Osmolarity (~50 mM Potassium Phosphate, target pH 8.5, t2 h) of 265 mOsm/Kg. For the same compound, the Osmolarity (~50 mM Potassium Phosphate, target pH 8.5, t24 h) was 255 mOsm/Kg, the Osmolarity (~50 mM Potassium Phosphate, target pH 8.5, t48 h) was 283 mOsm/Kg and the Osmolarity (~50 mM Sodium Phosphate, target pH 6.0, t2 h) was 212 mOsm/Kg. For the same compound, the Osmolarity (~50 mM Sodium Phosphate, target pH 6.0, t24 h) was 118 mOsm/Kg, the Osmolarity (~50 mM Sodium Phosphate, target pH 6.0, t48 h) was 141 mOsm/Kg and the Osmolarity (~50 mM Sodium Phosphate, target pH 7.4, t2 h) was 232 mOsm/Kg. The Osmolarity (~50 mM Sodium Phosphate, target pH 7.4, t24 h) was 233 mOsm/Kg, the Osmolarity (~50 mM Sodium Phosphate, target pH 7.4, t48 h) was 237 mOsm/Kg and the Osmolarity (~50 mM Sodium Phosphate, target pH 8.5, t2 h) was 241 mOsm/Kg. It also gave an Osmolarity (~50 mM Sodium Phosphate, target pH 8.5, t24 h) of 242 mOsm/Kg, an Osmolarity (~50 mM Sodium Phosphate, target pH 8.5, t48 h) of 276 mOsm/Kg and an Osmolarity (~50 mM Tromethamine/HCl, target pH 6.0, t2 h) of 124 mOsm/Kg. It also gave an Osmolarity (~50 mM Tromethamine/HCl, target pH 6.0, t24 h) of 129 mOsm/Kg, an Osmolarity (~50 mM Tromethamine/HCl, target pH 6.0, t48 h) of 133 mOsm/Kg and an Osmolarity (~50 mM Tromethamine/HCl, target pH 7.4, t2 h) of 165 mOsm/Kg. The Osmolarity (~50 mM Tromethamine/HCl, target pH 7.4, t24 h) was 181 mOsm/Kg, the Osmolarity (~50 mM Tromethamine/HCl, target pH 7.4, t48 h) was 186 mOsm/Kg and the Osmolarity (~50 mM Tromethamine/HCl, target pH 8.5, t2 h) was 242 mOsm/Kg. The Osmolarity (~50 mM Tromethamine/HCl, target pH 8.5, t24 h) was 239 mOsm/Kg, the Osmolarity (~50 mM Tromethamine/HCl, target pH 8.5, t48 h) was 258 mOsm/Kg and the Osmolarity ([3]; 200 mM Citrate, target pH 6.0, t2 h) was 516 mOsm/kg. The Osmolarity ([3]; 200 mM Citrate, target pH 6.0, t24 h) was 533 mOsm/kg, the Osmolarity ([3]; 200 mM Citrate, target pH 6.0, t48 h) was 557 mOsm/kg and the Osmolarity ([3]; 200 mM Citrate, target pH 7.4, t2 h) was 488 mOsm/kg. For the same compound, the Osmolarity ([3]; 200 mM Citrate, target pH 7.4, t24 h) was 484 mOsm/kg, the Osmolarity ([3]; 200 mM Citrate, target pH 7.4, t48 h) was 549 mOsm/kg and the Osmolarity ([3]; 200 mM Histidine/HCl, target pH 6.0, t2 h) was 441 mOsm/kg. For the same compound, the Osmolarity ([3]; 200 mM Histidine/HCl, target pH 6.0, t24 h) was 392 mOsm/kg, the Osmolarity ([3]; 200 mM Histidine/HCl, target pH 6.0, t48 h) was 477 mOsm/kg and the Osmolarity ([3]; 200 mM Histidine/HCl, target pH 7.4, t2 h) was 588 mOsm/kg. For the same compound, the Osmolarity ([3]; 200 mM Histidine/HCl, target pH 7.4, t24 h) was 584 mOsm/kg, the Osmolarity ([3]; 200 mM Histidine/HCl, target pH 7.4, t48 h) was 616 mOsm/kg and the Osmolarity ([3]; 200 mM Histidine/HCl, target pH 8.5, t2 h) was 553 mOsm/kg. The Osmolarity ([3]; 200 mM Histidine/HCl, target pH 8.5, t24 h) was 558 mOsm/kg, the Osmolarity ([3]; 200 mM Histidine/HCl, target pH 8.5, t48 h) was 678 mOsm/kg and the Osmolarity ([3]; 200 mM Potassium Phosphate, target pH 6.0, t2 h) was 384 mOsm/kg. For the same compound, the Osmolarity ([3]; 200 mM Potassium Phosphate, target pH 6.0, t24 h) was 383 mOsm/kg, the Osmolarity ([3]; 200 mM Potassium Phosphate, target pH 6.0, t48 h) was 376 mOsm/kg and the Osmolarity ([3]; 200 mM Potassium Phosphate, target pH 7.4, t2 h) was 462 mOsm/kg. It also gave an Osmolarity ([3]; 200 mM Potassium Phosphate, target pH 7.4, t24 h) of 471 mOsm/kg, an Osmolarity ([3]; 200 mM Potassium Phosphate, target pH 7.4, t48 h) of 481 mOsm/kg and an Osmolarity ([3]; 200 mM Potassium Phosphate, target pH 8.5, t2 h) of 487 mOsm/kg. For the same compound, the Osmolarity ([3]; 200 mM Potassium Phosphate, target pH 8.5, t24 h) was 497 mOsm/kg, the Osmolarity ([3]; 200 mM Potassium Phosphate, target pH 8.5, t48 h) was 423 mOsm/kg and the Osmolarity ([3]; 200 mM Sodium Phosphate, target pH 6.0, t2 h) was 388 mOsm/kg. The “Apparent pH” value [3, 4] was 5.1, the Osmolarity [3, 4] was 399 mOsm/kg and the Osmolarity ([3]; 200 mM Sodium Phosphate, target pH 6.0, t48 h) was 393 mOsm/kg. It also gave an Osmolarity ([3]; 200 mM Sodium Phosphate, target pH 7.4, t2 h) of 330 mOsm/kg, an Osmolarity ([3]; 200 mM Sodium Phosphate, target pH 7.4, t24 h) of 310 mOsm/kg and an Osmolarity ([3]; 200 mM Sodium Phosphate, target pH 7.4, t48 h) of 310 mOsm/kg. It also gave an Osmolarity ([3]; 200 mM Sodium Phosphate, target pH 8.5, t2 h) of 282 mOsm/kg, an Osmolarity ([3]; 200 mM Sodium Phosphate, target pH 8.5, t24 h) of 267 mOsm/kg and an Osmolarity ([3]; 200 mM Sodium Phosphate, target pH 8.5, t48 h) of 285 mOsm/kg. It also gave an Osmolarity ([3]; 200 mM Tromethamine, target pH 6.0, t2 h) of 403 mOsm/kg, an Osmolarity ([3]; 200 mM Tromethamine, target pH 6.0, t24 h) of 406 mOsm/kg and an Osmolarity ([3]; 200 mM Tromethamine, target pH 6.0, t48 h) of 446 mOsm/kg. The Osmolarity ([3]; 200 mM Tromethamine, target pH 7.4, t2 h) was 434 mOsm/kg, the Osmolarity ([3]; 200 mM Tromethamine, target pH 7.4, t24 h) was 481 mOsm/kg and the Osmolarity ([3]; 200 mM Tromethamine, target pH 7.4, t48 h) was 482 mOsm/kg. For the same compound, the Osmolarity ([3]; 200 mM Tromethamine, target pH 8.5, t2 h) was 403 mOsm/kg, the Osmolarity ([3]; 200 mM Tromethamine, target pH 8.5, t24 h) was 347 mOsm/kg and the Osmolarity ([3]; 200 mM Tromethamine, target pH 8.5, t48 h) was 433 mOsm/kg. The Osmolarity ([3]; 200 mM Tromethamine/HCl, target pH 6.0, t2 h) was 121 mOsm/kg, the Osmolarity ([3]; 200 mM Tromethamine/HCl, target pH 6.0, t24 h) was 114 mOsm/kg and the Osmolarity ([3]; 200 mM Tromethamine/HCl, target pH 6.0, t48 h) was 127 mOsm/kg. The Osmolarity ([3]; 200 mM Tromethamine/HCl, target pH 7.4, t2 h) was 232 mOsm/kg, the Osmolarity ([3]; 200 mM Tromethamine/HCl, target pH 7.4, t24 h) was 215 mOsm/kg and the Osmolarity ([3]; 200 mM Tromethamine/HCl, target pH 7.4, t48 h) was 233 mOsm/kg. For the same compound, the “Apparent pH” value [3, 5] was 8.8, the Osmolarity [3, 5] was 177 mOsm/kg and the Osmolarity ([3]; 200 mM Tromethamine/HCl, target pH 8.5, t24 h) was 257 mOsm/kg. For the same compound, the Osmolarity ([3]; 200 mM Tromethamine/HCl, target pH 8.5, t48 h) was 252 mOsm/kg.
